In paper PMC4002258 (Biochimica et biophysica acta, 2013):
Read-outs that look alike come from different tables or passages of the source. Marks after values point to notes of the source that are not given here.

What was measured:
Assay type in all cases: biochemical
[1] = molecular target: T1, human recombinant core 2/4 β1,6-GlcNAc-transferase (C2GnT2) (Homo sapiens, UniProt O95395); settings: for C2GnT2 activity (%): acceptor substrate 0.5 mM, 0.5 mM Galβ1–3GalNAcα-pnp set to 100%
T1 sequence (O95395 27-438): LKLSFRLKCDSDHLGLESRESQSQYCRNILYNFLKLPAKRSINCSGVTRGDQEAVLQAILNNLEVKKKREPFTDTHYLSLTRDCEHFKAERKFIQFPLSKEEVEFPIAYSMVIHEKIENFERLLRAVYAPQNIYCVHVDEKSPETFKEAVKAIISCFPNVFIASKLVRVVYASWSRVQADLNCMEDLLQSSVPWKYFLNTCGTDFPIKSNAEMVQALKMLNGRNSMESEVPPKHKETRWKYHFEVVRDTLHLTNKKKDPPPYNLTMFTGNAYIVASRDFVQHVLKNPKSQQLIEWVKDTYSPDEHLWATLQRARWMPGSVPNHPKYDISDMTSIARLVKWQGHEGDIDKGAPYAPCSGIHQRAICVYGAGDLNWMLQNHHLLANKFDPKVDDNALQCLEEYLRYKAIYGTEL

[2] = molecular target: T2, human recombinant core 2 β1,6-GlcNAc-transferase (C2GnT1) (Homo sapiens, UniProt Q02742); assay: C2GnT1 glycosyltransferase assay; settings: for C2GnT1 activity (%): acceptor substrate 0.5 mM, 0.5 mM Galβ1–3GalNAcα-pnp set to 100%
T2 sequence (Q02742 33-428 limits assumed): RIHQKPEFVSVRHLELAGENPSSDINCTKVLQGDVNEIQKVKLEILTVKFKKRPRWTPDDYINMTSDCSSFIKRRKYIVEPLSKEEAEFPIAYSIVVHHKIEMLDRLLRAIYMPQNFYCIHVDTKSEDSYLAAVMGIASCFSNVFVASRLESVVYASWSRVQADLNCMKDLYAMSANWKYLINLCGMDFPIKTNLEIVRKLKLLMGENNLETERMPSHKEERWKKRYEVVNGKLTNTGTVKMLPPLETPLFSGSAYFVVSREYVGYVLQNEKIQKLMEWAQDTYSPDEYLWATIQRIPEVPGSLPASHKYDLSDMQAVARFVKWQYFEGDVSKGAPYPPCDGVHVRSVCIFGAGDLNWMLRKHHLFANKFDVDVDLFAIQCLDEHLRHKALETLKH

[3] = molecular target: human recombinant core 1 β1,3-Gal-transferase (C1GalT) (Homo sapiens, UniProt Q9NS00); assay: C1GalT glycosyltransferase assay; settings: acceptor substrate 0.5 mM; 0.5 mM GalNAcα-Bn set to 100%
Chain of human recombinant core 1 β1,3-Gal-transferase (C1GalT) (Q9NS00 30-363 limits assumed): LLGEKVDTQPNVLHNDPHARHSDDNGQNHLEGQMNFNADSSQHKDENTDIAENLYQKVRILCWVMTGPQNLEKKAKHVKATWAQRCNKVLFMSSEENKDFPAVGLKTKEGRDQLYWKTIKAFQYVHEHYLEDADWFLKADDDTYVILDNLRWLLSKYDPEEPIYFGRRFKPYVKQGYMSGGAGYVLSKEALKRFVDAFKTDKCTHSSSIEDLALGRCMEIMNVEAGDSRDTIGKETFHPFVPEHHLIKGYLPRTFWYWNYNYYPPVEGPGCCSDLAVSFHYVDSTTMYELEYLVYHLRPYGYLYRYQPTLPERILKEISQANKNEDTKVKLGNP

Molecule	C2GnT2 activity (%) [1]	C2GnT1 activity (%) [2]	further results
TT-(Galβ1–3GalNAcα)TVTP-(Galβ1–3GalNAcα)TPTG	<1%	12%	–
CC(=O)N[C@H]1[C@@H](OP(=O)(O)OP(=O)(O)OC[C@H]2O[C@@H](n3ccc(=O)[nH]c3=O)[C@H](O)[C@@H]2O)O[C@H](CO)[C@@H](O)[C@@H]1O [UDP-GlcNAc, reference compound]	–	–	Vmax ([1]; C2GnT2, donor substrate, using 5 mM Galβ1–3GalNAcα-pnp): 1.7 µmol/h/mg; Vmax ([1]; C2GnT2, donor substrate, using 5 mM GlcNAcβ1–3GalNAcα-pnp): 0.8 µmol/h/mg; Vmax ([2]; C2GnT1, donor substrate, using 5 mM Galβ1–3GalNAcα-pnp): 0.1 µmol/h/mg
T-(GlcNAcβ1–3GalNAcα)TTVTPTPTG	<1%	<1%	–
Ac-G-(Galβ1–3GalNAcα)TTTPIST-NH2	8%	12%	–
Ac-GTT-(Galβ1–3GalNAcα)TPIST-NH2	<1%	14%	–
AHGVT-(Galβ1–3GalNAcα)SAPDTRPAPGS- (Galβ1–3GalNAcα)SAPPA	<1%	9%	–
AHGVT-(Galβ1–3GalNAcα)SAPDTRPAPGSTAPTA	<1%	9%	–
AHGVT-(Galβ1–3GalNAcα)SAPDTRPAPGSTAP- (Galβ1–3GalNAcα)TA	<1%	18%	–
AHGVT-(Galβ1–3GalNAcα)SAPESRPAPGSTAPNA	<1%	9%	–
CC(=O)N[C@H]1[C@@H](OCc2ccccc2)O[C@H](CO)[C@H](O)[C@@H]1O[C@@H]1O[C@H](CO)[C@H](F)[C@H](O)[C@H]1O [4-F-4-Deoxy-Galβ1–3GalNAcα-Bn]	<1%	<1%	–
TET-(Galβ1–3GalNAcα)TSHSTPG	<1%	27%	–
CO[C@H]1[C@@H](O)[C@@H](CO)O[C@@H](O[C@H]2[C@@H](O)[C@@H](CO)O[C@H](OCc3ccccc3)[C@@H]2NC(C)=O)[C@@H]1O [3-O-Methyl-Galβ1–3GalNAcα-Bn]	41%	104%	–
CC(=O)N[C@H]1[C@H](OC[C@H]2O[C@H](OCc3ccccc3)[C@H](NC(C)=O)[C@@H](O[C@@H]3O[C@H](CO)[C@@H](O)[C@H](O)[C@H]3NC(C)=O)[C@H]2O)O[C@H](CO)[C@@H](O)[C@@H]1O [GlcNAcβ1–6(GlcNAcβ1–3)GalNAcα-Bn]	<1%	<1%	–
C=C(C)C1CC=C(CO[C@H]2O[C@H](CO)[C@H](O)[C@H](O[C@@H]3O[C@H](CO)[C@H](O)[C@H](O)[C@H]3O)[C@H]2NC(C)=O)CC1 (stereo partly shown) [Galβ1–3GalNAcα-perillyl]	86%	135%	–
TETTSHS-(Galβ1–3GalNAcα)TPG	7%	70%	–
AHGVT-(Galβ1–3GalNAcα)SAPETRPAPGSTAPTA	<1%	11%	–
TET-(GlcNAcβ1–3GalNAcα)TSHSTPG	<1%	<1%	–
CO[C@H]1O[C@H](CO)[C@H](O)[C@H](O[C@@H]2O[C@H](CO)[C@H](O)[C@H](O)[C@H]2O[C@@H]2O[C@@H](C)[C@@H](O)[C@@H](O)[C@@H]2O)[C@H]1NC(C)=O [Fucα1–2Galβ1–3GalNAcα-methyl]	<1%	<1%	–
CO[C@@H]1O[C@H](CO)[C@H](O)[C@H](O[C@@H]2O[C@H](CO)[C@@H](O)[C@H](O)[C@H]2NC(C)=O)[C@H]1O [GlcNAcβ1–3-Galβ-methyl]	<1%	<1%	–
CC(=O)N[C@H]1[C@@H](OCc2ccccc2)O[C@H](CO)[C@H](O)[C@@H]1O[C@@H]1O[C@H](CO)[C@H](O)[C@H](O[C@@H]2O[C@H](CO)[C@@H](O)[C@H](O[C@@H]3O[C@H](CO)[C@H](O)[C@H](O)[C@H]3O)[C@H]2NC(C)=O)[C@H]1O [Galβ1–3GlcNAcβ1–3Galβ1–3GalNAcα-Bn]	<1%	<1%	–
CC(=O)N[C@H]1[C@@H](Oc2ccc([N+](=O)[O-])cc2)O[C@H](CO)[C@H](O)[C@@H]1O[C@@H]1O[C@H](CO)[C@H](O)[C@H](O)[C@H]1O [Galβ1–3GalNAcα-pnp, reference compound]	100 ^b %	100 ^a %	Vmax ([1]; C2GnT2, acceptor substrate): 1.5 µmol/h/mg
CC(=O)N[C@H]1[C@@H](OCc2ccccc2)O[C@H](CO)[C@H](O)[C@@H]1O[C@@H]1O[C@H](C)[C@H](O)[C@H](O)[C@H]1O [6-Deoxy-Galβ1–3GalNAcαBn]	<1%	<1%	–
Ac-PTT-(Galβ1–3GalNAcα)TGIST-NH2	<1%	36%	–

Molecule	C2GnT2 activity (%) [1]	C2GnT1 activity (%) [2]	further results
TT-(Galβ1–3GalNAcα)TVTPTPTG	<1%	13%	–
CC(=O)N[C@H]1[C@@H](OCc2ccccc2)O[C@H](CO)[C@H](O)[C@@H]1O[C@@H]1O[C@H](CO)[C@H](O)[C@H](O)[C@H]1O [Galβ1–3GalNAcα-Bn]	35%	64%	–
CC(=O)N[C@H]1[C@H](O[C@H]2[C@@H](O)[C@@H](CO)O[C@H](Oc3ccc([N+](=O)[O-])cc3)[C@@H]2NC(C)=O)O[C@H](CO)[C@@H](O)[C@@H]1O [GlcNAcβ1–3GalNAcα-pnp, reference compound]	32%	<1%	Vmax ([1]; C2GnT2, acceptor substrate): 1.0 µmol/h/mg
Ac-PT-(Galβ1–3GalNAcβ)TTPIST-NH2	15%	43%	–
C=CCO[C@H]1O[C@H](CO)[C@H](O)[C@H](O[C@@H]2O[C@H](CO)[C@@H](O)[C@H](O)[C@H]2NC(C)=O)[C@H]1NC(C)=O [GlcNAcβ1–3GalNAcα-allyl]	27%	<1%	–
COC[C@H]1O[C@H](OCc2ccccc2)[C@H](NC(C)=O)[C@@H](O[C@@H]2O[C@H](CO)[C@H](O)[C@H](O)[C@H]2O)[C@H]1O [Galβ1–3(6-O-methyl)GalNAcα-Bn]	<1%	<1%	–
(Galβ1–3GalNAcα)TAGV	<1%	92%	–
CC(=O)N[C@H]1[C@@H](OCc2ccccc2)O[C@H](CO)[C@H](O)[C@@H]1O[C@@H]1O[C@H](CO)C[C@H](O)[C@H]1O [4-Deoxy-Galβ1–3GalNAcα-Bn]	<1%	<1%	–
TE-(GlcNAcβ1–3GalNAcα)TTSHSTPG	<1%	<1%	–
Ac-GT-(Galβ1–3GalNAcα)TTPIST-NH2	5%	13%	–
Ac-PT-(Galβ1–3GalNAcα)TTGIST-NH2	6%	49%	–
Ac-P-(Galβ1–3GalNAcα)TTTGIST-NH2	<1%	7%	–
CC(=O)N[C@H]1[C@@H](OCc2ccccc2)O[C@H](CO)[C@@H](O)[C@@H]1O[C@@H]1O[C@H](CO)[C@H](O)[C@H](O)[C@H]1O [Galβ1–3GlcNAcα-Bn]	–	<1%	–
Ac-P-(Galβ1–3GalNAcβ)TTTPIST-NH2	32%	72%	–
CC(=O)N[C@H]1[C@@H](OCc2ccccc2)O[C@H](CO)[C@H](O)[C@@H]1O[C@@H]1O[C@H](CO)[C@H](O)C[C@H]1O [3-Deoxy-Galβ1–3GalNAcα-Bn]	52%	90%	–
CC(=O)N[C@H]1[C@@H](Oc2ccccc2[N+](=O)[O-])O[C@H](CO)[C@H](O)[C@@H]1O[C@@H]1O[C@H](CO)[C@H](O)[C@H](O)[C@H]1O [Galβ1–3GalNAcα-onp]	100%	79%	–
T-(GalNAcα)TTVTPTPTG	–	–	C1GalT activity (%) [3]: 231%
AHGVT-(Galβ1–3GalNAcα)SAPDTRPAPGSTAPNA	<1%	9%	–
TETTSHS-(GlcNAcβ1–3GalNAcα)TPG	<1%	<1%	–
TE-(GalNAcα)TTSHSTPG	–	–	C1GalT activity (%) [3]: 373%
T-(Galβ1–3GalNAcα)TTVTPTPTG	<1%	11%	–
CC(=O)N[C@H]1[C@@H](OCc2ccccc2)O[C@H](CO)C[C@@H]1O[C@@H]1O[C@H](CO)[C@H](O)[C@H](O)[C@H]1O [Galβ1–3(4-deoxy)GalNAcα-Bn]	<1%	<1%	–
TET-(GalNAcα)TSHSTPG	–	–	C1GalT activity (%) [3]: 210%
